Measured values published in patent publication US10676438B2, “KCNQ2-5 channel activator” (Ono Pharmaceutical Co., Ltd., priority 2014, dated 2020).
In brackets after ≈: the same amount, converted by molar mass.

Tests used:
hERG channel = hERG channel (Homo sapiens (Human), UniProt Q12809); assay: Evaluation of action on hERG IKr current (patch-clamp); type: cell-based; settings: HEK293 cell overexpressing hERG, maximum tail current, 10 minutes after application; read-out: IC50 (50% inhibitory activity of hERG channel)
Experimental: Using HEK293 cell overexpressing a human ether-a-go-go-related gene (hERG), the maximum tale current of the hERG IKr current induced by redepolarization pulse subsequent to depolarization pulse was measured by a patch-clamp method.

Human KCNQ2/3 channel = Human KCNQ2/3 channel (Homo sapiens (Human), UniProt O43525+O43526); assay: Opening action with respect to KCNQ2/3 channel by depolarization stimulation (thallium influx, FLIPR); type: cell-based; settings: concentration giving 50% of maximum reaction of retigabine (10 μM); human KCNQ2/3 expression CHO-DHFR- cells; 5 mM potassium and 0.5 mM thallium; read-out: KCNQ2/3 ECrtg50
How it was run: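 CHO-DHFR- cells expressing human KCNQ2/3, loaded with FluxOR thallium dye 60 min at room temperature. Compound added 5 min before depolarisation with 5 mM K+ and 0.5 mM Tl+; fluorescence change over 180 s read on FLIPR. ECrtg50 is the concentration giving 50% of the maximal response to 10 μM retigabine.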

[1] = test system: urinary bladder extracted from rat; assay: Relaxing action on urinary bladder extracted from rat (rat Magnus test); settings: concentration at which tension change rate is -20%; carbachol 1 μM-induced contraction of rat urinary bladder strips
Experimental: Female Jcl Wistar rats (CLEA Japan, Inc., body weight in use: 170 to 200 g) were anesthetized by intraperitoneal administration of about 40 mg/kg of pentobarbital (Somnopentyl, Schering Plough Animal Health Corporation), and killed by bloodletting, followed by abdominal incision to extract the urinary bladder. Immediately, the extracted urinary bladder was immersed in ice-cooled Krebs buffer (Krebs Ringer bicarbonate buffer (Sigma-Aldlich Co.) containing sodium hydrogencarbonate (final concentration: 15 mM) and calcium chloride (final concentration: 2.5 mM)) which had been saturated with a mixed gas (95% O2, 5% CO2).
The urinary bladder bodies were cut in the longitudinal direction to prepare strip specimens (about 10×3 mm) on ice. Immediately, the prepared specimens were suspended in a Magnus tube with 500 mg of tension loaded. The tube was filled with Krebs buffer (37° C.) aerated with a mixed gas. Note here that specimens were prepared within 24 hours after extraction of the tissue.
When one hour or more had passed after the specimen was suspended, 2.5M KCl was added so that the final concentration became 100 mM, specimens showing contraction reaction were used.
Carbachol (a contraction-inducing substance) at the concentration of contraction of 1 μM was used to induce contraction. […] After the contraction reaction was stabilized, a physiological salt solution or the compound of the present invention was added in a cumulative manner from low concentration such that the final concentration became 1, 10, 100 nM, 1 and 10 μM.
The tension (mg) of the extracted urinary bladder was employed as an evaluation parameter. The tension was read by using analysis software WAVE THERMO 1000. Tension after addition of the contraction-inducing substance was set to 0%. The change rate of the tension after addition of the compound of the present invention relative to the tension after addition of the contraction-inducing substance was defined as tension change rate (%). The tension change rate (%) was adopted as an evaluation indicator. The tension change rate (%) is calculated from the following formula. Tension change rate (%)={Tension after addition of compound of the present invention and the like (mg)−Tension before addition of contraction-inducing substance (mg)}/{Tension after addition of contraction-inducing substance (mg)−Tension before addition of contraction-inducing substance (mg)}×100−100
The value at which the tension change rate (%) was −20% was calculated as IC20, and the value was adopted as an indicator of the relaxing action of the extracted urinary bladder.

[2] = Solubility test (DMSO precipitation method, Pharmacopoeia of Japan elution test second solution); type: physicochemical; settings: aqueous buffer, kinetic from dmso stock; Pharmacopoeia of Japan elution test second solution pH=6.8, room temperature, five hours; quantitation range 5 to 100 μM
How it was run: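 Test compound from 10 mM DMSO stock added to JP elution test second solution (pH 6.8), stirred 5 h at room temperature, then suction-filtered. Filtrate diluted in acetonitrile with internal standard and quantified by LC-MS/MS against a calibration curve (quantitation range 5 to 100 μM).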

[3] = Evaluation of stability in human liver microsome; type: in vitro ADME; settings: human, 15 min, 5 μmol/L, pH 7.4
Experimental: A test compound (10 mmol/L DMSO solution, 5 μL) was diluted with 50% acetonitrile aqueous solution (195 μL) to prepare 0.25 mmol/L solution.
To a reactor vessel which had been warmed to 37° C. in advance, 0.5 mg/mL of human liver microsome (Xenotech) and 245 μL of 0.1 M phosphate buffer solution (pH 7.4) including NADPH-Co-factor (BD Biosciences) were added, followed by preincubation for five minutes. Then, the above-mentioned test compound solution (5 μL) was added so as to start reaction (final concentration: 5 μmol/L). Immediately after the start, 20 μL was harvested and added to 180 μL of acetonitrile including an internal standard substance (warfarin) to stop the reaction. This solution (20 μL) was stirred with 180 μL of 50% acetonitrile aqueous solution on a plate equipped with a deproteinization filter. Then, the resulting mixture solution was subjected to suction filtration. The filtrate was adopted as a standard sample.
The above-mentioned reaction solution was incubated at 37° C. for 15 minutes, and 20 μL of the solution was added to 180 μL of cooled acetonitrile (including warfarin that is an internal standard substance) to stop the reaction. This solution (20 μL) was stirred with 180 μL of 50% acetonitrile aqueous solution on a plate equipped with a deproteinization filter, and then the resulting mixture solution was subjected to suction filtration. The filtrate was adopted as a reaction sample.
Residual rate (%) was obtained as follows: 1 μL of the sample solution was infused into LC-MS/MS (Discovery Max manufactured by Thermo Scientific), and a quotient obtained by dividing a peak area ratio of the reaction sample (peak area of test compound/peak area of internal standard substance) was divided by the peak area ratio of the standard sample was multiplied by 100.

hERG channel, sequence (Q12809 whole entry): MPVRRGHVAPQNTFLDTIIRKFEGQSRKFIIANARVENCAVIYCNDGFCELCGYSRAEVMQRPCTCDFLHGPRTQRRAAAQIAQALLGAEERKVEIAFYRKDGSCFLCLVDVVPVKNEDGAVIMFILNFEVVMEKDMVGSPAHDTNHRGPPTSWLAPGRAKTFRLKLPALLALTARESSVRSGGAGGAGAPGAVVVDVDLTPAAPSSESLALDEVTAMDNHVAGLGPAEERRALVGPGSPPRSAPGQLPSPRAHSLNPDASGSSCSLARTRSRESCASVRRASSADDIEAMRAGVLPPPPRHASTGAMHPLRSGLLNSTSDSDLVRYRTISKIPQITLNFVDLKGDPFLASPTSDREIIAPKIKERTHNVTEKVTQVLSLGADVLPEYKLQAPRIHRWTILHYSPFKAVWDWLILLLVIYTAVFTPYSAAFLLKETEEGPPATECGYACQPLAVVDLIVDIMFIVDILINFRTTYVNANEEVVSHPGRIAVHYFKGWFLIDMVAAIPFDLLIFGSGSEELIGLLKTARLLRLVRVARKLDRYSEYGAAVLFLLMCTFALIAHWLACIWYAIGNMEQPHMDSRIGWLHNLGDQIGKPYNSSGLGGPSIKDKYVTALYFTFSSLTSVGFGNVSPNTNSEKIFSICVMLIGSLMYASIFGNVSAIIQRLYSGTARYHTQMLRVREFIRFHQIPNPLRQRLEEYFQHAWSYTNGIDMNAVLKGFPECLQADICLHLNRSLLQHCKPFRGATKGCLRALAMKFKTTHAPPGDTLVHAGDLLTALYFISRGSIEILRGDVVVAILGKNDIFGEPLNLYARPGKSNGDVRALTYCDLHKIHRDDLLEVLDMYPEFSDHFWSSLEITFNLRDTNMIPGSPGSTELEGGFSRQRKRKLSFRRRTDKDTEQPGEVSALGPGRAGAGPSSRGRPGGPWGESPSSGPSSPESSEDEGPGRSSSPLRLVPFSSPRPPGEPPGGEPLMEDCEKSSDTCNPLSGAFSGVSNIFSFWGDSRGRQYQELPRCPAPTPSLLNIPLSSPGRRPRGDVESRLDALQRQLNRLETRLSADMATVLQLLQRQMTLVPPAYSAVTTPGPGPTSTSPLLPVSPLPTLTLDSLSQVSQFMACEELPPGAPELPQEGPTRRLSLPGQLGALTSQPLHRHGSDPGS

| SMILES | IC50 (hERG channel) | EC50 (Human KCNQ2/3 channel) | IC20 [1] | solubility at 5 h [2] | Residual rate [3] |
| --- | --- | --- | --- | --- | --- |
| O=C(NCc1cnc(C(F)(F)F)s1)Nc1c(Cl)cc([C@@H](O)C(F)(F)F)cc1Cl [Example 33, 1-{2,6-dichloro-4-[(1R)-2,2,2-trifluoro-1-hydroxyethyl]phenyl}-3-{[2-(trifluoromethyl)-1,3-thiazole-5-yl]methyl}urea] | > 10000 nM | 40 nM | 30 nM | 91 µM (≈ 42.6 µg/mL) | 100% |
| O=C(NCc1cnc(C(F)(F)F)nc1)Nc1c(Cl)cc([C@H](O)C(F)(F)F)cc1Cl [Example 35 (3), 1-{2,6-dichloro-4-[(1S)-2,2,2-trifluoro-1-hydroxyethyl]phenyl}-3-{[2-(trifluoromethyl)-5-pyrimidinyl]methyl}urea] | > 10000 nM | 300 nM | 100 nM | 87 µM (≈ 40.3 µg/mL) | 100% |
| O=C(NCc1cnc(C(F)(F)F)s1)Nc1c(Cl)cc([C@H](O)C(F)(F)F)cc1Cl [Example 36, 1-{2,6-dichloro-4-[(1S)-2,2,2-trifluoro-1-hydroxyethyl]phenyl}-3-{[2-(trifluoromethyl)-1,3-thiazole-5-yl]methyl}urea] | > 10000 nM | 30 nM | 10 nM | 44 µM (≈ 20.6 µg/mL) | 100% |
